Literature values in patent publication US20100003364A1, “REDUCED-HANGOVER ALCOHOLIC BEVERAGE COMPRISING TURMERIC” (priority 2006, published 2010).

Settings: biological activities listed for compounds from Curcuma longa L.
In the case of `CC(C)=CC(=O)CC(C)c1ccc(C)cc1` (stereo not shown) [Ar-turmerone], the Activity is listed as “snakebite”. For `O=C(C=Cc1ccc(O)cc1)CC(=O)C=Cc1ccc(O)cc1` [Bisdemethoxy curcumin], the Activity is listed as “antioxidant”. For `COc1cc(/C=C/C(=O)CC(=O)/C=C/c2ccc([O-])c(OC)c2)ccc1[O-].[Na+].[Na+]` [Sodium curcuminate], the Activity is listed as “anti-inflammatory”. In the case of Methylcurcumin, the Activity is given as “L. amazonensis”.
